According to ChEMBL document CHEMBL1909046, “DrugMatrix in vitro pharmacology data”:

Molecular target: T1, Alpha-1B adrenergic receptor (Rattus norvegicus, UniProt P15823)
T1 sequence (P15823 whole entry): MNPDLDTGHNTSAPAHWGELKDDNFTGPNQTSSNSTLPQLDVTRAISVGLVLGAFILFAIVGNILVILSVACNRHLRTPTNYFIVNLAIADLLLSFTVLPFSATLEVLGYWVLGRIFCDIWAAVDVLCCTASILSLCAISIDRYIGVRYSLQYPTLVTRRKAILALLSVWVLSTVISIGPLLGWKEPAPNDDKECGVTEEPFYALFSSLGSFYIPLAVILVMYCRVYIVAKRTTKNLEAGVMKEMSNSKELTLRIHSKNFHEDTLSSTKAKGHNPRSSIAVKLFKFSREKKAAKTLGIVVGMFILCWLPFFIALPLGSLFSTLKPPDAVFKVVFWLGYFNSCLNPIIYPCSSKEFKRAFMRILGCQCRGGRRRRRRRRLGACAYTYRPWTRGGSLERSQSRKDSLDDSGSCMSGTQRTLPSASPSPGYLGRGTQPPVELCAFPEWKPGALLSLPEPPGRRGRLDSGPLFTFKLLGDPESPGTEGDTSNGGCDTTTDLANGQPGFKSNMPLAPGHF
Test: DRUGMATRIX: Alpha-1B adrenergic receptor radioligand binding (ligand: prazosin)
Format: cell membranes, Wistar, Liver, Membrane
Conditions: Not Active = under 50% inhibition at 10 µM

Structure (SMILES) | IC50
O=C(O)c1ccccc1O [SALICYLIC ACID] | Not Active
CC1CCC(NC(=O)N(CCCl)N=O)CC1 (stereo unspecified) [SEMUSTINE] | Not Active
O=C1C[C@@H]2OCC=C3CN4CC[C@]56c7ccccc7N1[C@H]5[C@H]2[C@H]3C[C@H]46 [STRYCHNINE] | Not Active
C[N+](C)(C)CCOC(=O)CCC(=O)OCC[N+](C)(C)C.[Cl-].[Cl-] [SUCCINYLCHOLINE CHLORIDE] | Not Active
Nc1ccc(S(=O)(=O)NC(=O)c2ccccc2)cc1 [SULFABENZAMIDE] | Not Active
CCCCCCCCNC(C)C(O)c1ccc(SC(C)C)cc1 (stereo unspecified) [SULOCTIDIL] | Not Active

Tested on: not listed separately
Test: DRUGMATRIX: beta-Lactamase enzyme inhibition (substrate: Nitrocefin)
Set-up: species or system Bacillus cereus
Conditions: Not Active = under 50% inhibition at 10 µM

Structure (SMILES) | IC50 | Ki
O=C(O)c1ccccc1O [SALICYLIC ACID] | Not Active | Not Active
CC1CCC(NC(=O)N(CCCl)N=O)CC1 (stereo unspecified) [SEMUSTINE] | Not Active | Not Active
O=C1C[C@@H]2OCC=C3CN4CC[C@]56c7ccccc7N1[C@H]5[C@H]2[C@H]3C[C@H]46 [STRYCHNINE] | Not Active | Not Active
C[N+](C)(C)CCOC(=O)CCC(=O)OCC[N+](C)(C)C.[Cl-].[Cl-] [SUCCINYLCHOLINE CHLORIDE] | Not Active | Not Active
Nc1ccc(S(=O)(=O)NC(=O)c2ccccc2)cc1 [SULFABENZAMIDE] | Not Active | Not Active
CCCCCCCCNC(C)C(O)c1ccc(SC(C)C)cc1 (stereo unspecified) [SULOCTIDIL] | Not Active | Not Active

Tested on: not listed separately
Test: DRUGMATRIX: Calcium Channel Type L, Dihydropyridine radioligand binding (ligand: [3H] Nitrendipine)
Format: cell membranes, Rattus norvegicus, Wistar, Cerebral cortex, Membrane
Conditions: Not Active = under 50% inhibition at 10 µM

Structure (SMILES) | IC50 | Ki
O=C(O)c1ccccc1O [SALICYLIC ACID] | Not Active | Not Active
CC1CCC(NC(=O)N(CCCl)N=O)CC1 (stereo unspecified) [SEMUSTINE] | Not Active | Not Active
O=C1C[C@@H]2OCC=C3CN4CC[C@]56c7ccccc7N1[C@H]5[C@H]2[C@H]3C[C@H]46 [STRYCHNINE] | Not Active | Not Active
C[N+](C)(C)CCOC(=O)CCC(=O)OCC[N+](C)(C)C.[Cl-].[Cl-] [SUCCINYLCHOLINE CHLORIDE] | Not Active | Not Active
Nc1ccc(S(=O)(=O)NC(=O)c2ccccc2)cc1 [SULFABENZAMIDE] | Not Active | Not Active

Same assay, conditions: Not Active = under 50% inhibition at 10 µM; read-out: IC50

Structure (SMILES) | IC50 [µM]
CCCCCCCCNC(C)C(O)c1ccc(SC(C)C)cc1 (stereo unspecified) [SULOCTIDIL] | 0.26

Same assay, conditions: Not Active = under 50% inhibition at 10 µM; read-out: Ki

Structure (SMILES) | Ki [µM]
CCCCCCCCNC(C)C(O)c1ccc(SC(C)C)cc1 (stereo unspecified) [SULOCTIDIL] | 0.167

Tested on: not listed separately
Test: DRUGMATRIX: Sigma2 radioligand binding (ligand: [3H] Ifenprodil)
Format: cell membranes, Rattus norvegicus, Wistar, Brain, Membrane
Conditions: Not Active = under 50% inhibition at 10 µM

Structure (SMILES) | IC50 | Ki
O=C(O)c1ccccc1O [SALICYLIC ACID] | Not Active | Not Active
CC1CCC(NC(=O)N(CCCl)N=O)CC1 (stereo unspecified) [SEMUSTINE] | Not Active | Not Active
O=C1C[C@@H]2OCC=C3CN4CC[C@]56c7ccccc7N1[C@H]5[C@H]2[C@H]3C[C@H]46 [STRYCHNINE] | Not Active | Not Active
C[N+](C)(C)CCOC(=O)CCC(=O)OCC[N+](C)(C)C.[Cl-].[Cl-] [SUCCINYLCHOLINE CHLORIDE] | Not Active | Not Active
Nc1ccc(S(=O)(=O)NC(=O)c2ccccc2)cc1 [SULFABENZAMIDE] | Not Active | Not Active

Same assay, conditions: Not Active = under 50% inhibition at 10 µM; read-out: IC50

Structure (SMILES) | IC50 [µM]
CCCCCCCCNC(C)C(O)c1ccc(SC(C)C)cc1 (stereo unspecified) [SULOCTIDIL] | 0.0214

Same assay, conditions: Not Active = under 50% inhibition at 10 µM; read-out: Ki

Structure (SMILES) | Ki [µM]
CCCCCCCCNC(C)C(O)c1ccc(SC(C)C)cc1 (stereo unspecified) [SULOCTIDIL] | 0.0132

Tested on: not listed separately
Test: DRUGMATRIX: Phosphodiesterase PDE4 enzyme inhibition (substrate: [3H]cAMP + cAMP)
Conditions: u-937; Not Active = under 50% inhibition at 10 µM

Structure (SMILES) | IC50 | Ki
O=C(O)c1ccccc1O [SALICYLIC ACID] | Not Active | Not Active
CC1CCC(NC(=O)N(CCCl)N=O)CC1 (stereo unspecified) [SEMUSTINE] | Not Active | Not Active
O=C1C[C@@H]2OCC=C3CN4CC[C@]56c7ccccc7N1[C@H]5[C@H]2[C@H]3C[C@H]46 [STRYCHNINE] | Not Active | Not Active
C[N+](C)(C)CCOC(=O)CCC(=O)OCC[N+](C)(C)C.[Cl-].[Cl-] [SUCCINYLCHOLINE CHLORIDE] | Not Active | Not Active
Nc1ccc(S(=O)(=O)NC(=O)c2ccccc2)cc1 [SULFABENZAMIDE] | Not Active | Not Active
CCCCCCCCNC(C)C(O)c1ccc(SC(C)C)cc1 (stereo unspecified) [SULOCTIDIL] | Not Active | Not Active

Tested on: not listed separately
Test: DRUGMATRIX: Platelet-Derived Growth Factor (PDGF) radioligand binding (ligand: [125I] PDGF)
Format: cell-based
Conditions: nih3t3; Not Active = under 50% inhibition at 10 µM

Structure (SMILES) | IC50 | Ki
O=C(O)c1ccccc1O [SALICYLIC ACID] | Not Active | Not Active
CC1CCC(NC(=O)N(CCCl)N=O)CC1 (stereo unspecified) [SEMUSTINE] | Not Active | Not Active
O=C1C[C@@H]2OCC=C3CN4CC[C@]56c7ccccc7N1[C@H]5[C@H]2[C@H]3C[C@H]46 [STRYCHNINE] | Not Active | Not Active
C[N+](C)(C)CCOC(=O)CCC(=O)OCC[N+](C)(C)C.[Cl-].[Cl-] [SUCCINYLCHOLINE CHLORIDE] | Not Active | Not Active
Nc1ccc(S(=O)(=O)NC(=O)c2ccccc2)cc1 [SULFABENZAMIDE] | Not Active | Not Active

Tested on: not listed separately
Test: DRUGMATRIX: Purinergic P2X radioligand binding (ligand: [3H] alpha, beta-Methylene-ATP)
Format: cell membranes, Oryctolagus cuniculus, New Zealand albino, Urinary bladder, Membrane
Conditions: Not Active = under 50% inhibition at 10 µM

Structure (SMILES) | IC50 | Ki
O=C(O)c1ccccc1O [SALICYLIC ACID] | Not Active | Not Active
CC1CCC(NC(=O)N(CCCl)N=O)CC1 (stereo unspecified) [SEMUSTINE] | Not Active | Not Active
O=C1C[C@@H]2OCC=C3CN4CC[C@]56c7ccccc7N1[C@H]5[C@H]2[C@H]3C[C@H]46 [STRYCHNINE] | Not Active | Not Active
C[N+](C)(C)CCOC(=O)CCC(=O)OCC[N+](C)(C)C.[Cl-].[Cl-] [SUCCINYLCHOLINE CHLORIDE] | Not Active | Not Active
Nc1ccc(S(=O)(=O)NC(=O)c2ccccc2)cc1 [SULFABENZAMIDE] | Not Active | Not Active
CCCCCCCCNC(C)C(O)c1ccc(SC(C)C)cc1 (stereo unspecified) [SULOCTIDIL] | Not Active | Not Active

Molecular target: Cytochrome P450 2C19 (Homo sapiens, UniProt P33261); further: in other assays of this panel Not Active means under 50% inhibition at 10 µM
Sequence (P33261 whole entry): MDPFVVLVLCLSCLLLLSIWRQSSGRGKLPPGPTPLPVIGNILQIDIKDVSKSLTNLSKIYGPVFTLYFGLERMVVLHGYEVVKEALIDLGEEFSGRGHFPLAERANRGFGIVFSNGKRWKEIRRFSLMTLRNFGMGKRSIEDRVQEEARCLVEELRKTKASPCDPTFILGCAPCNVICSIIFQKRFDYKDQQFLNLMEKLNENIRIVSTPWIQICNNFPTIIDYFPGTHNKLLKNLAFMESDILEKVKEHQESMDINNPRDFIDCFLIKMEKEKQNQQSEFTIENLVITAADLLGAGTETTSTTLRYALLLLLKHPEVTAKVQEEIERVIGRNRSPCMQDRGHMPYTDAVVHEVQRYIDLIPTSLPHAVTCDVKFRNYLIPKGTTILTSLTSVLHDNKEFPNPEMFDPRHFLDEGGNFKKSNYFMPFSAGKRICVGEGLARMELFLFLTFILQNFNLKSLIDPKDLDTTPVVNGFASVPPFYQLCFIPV
Conditions: bti-tn-5b1-4

Structure (SMILES) | IC50 | Ki
O=C(O)c1ccccc1O [SALICYLIC ACID] | Not Active | Not Active
CC1CCC(NC(=O)N(CCCl)N=O)CC1 (stereo unspecified) [SEMUSTINE] | Not Active | Not Active
O=C1C[C@@H]2OCC=C3CN4CC[C@]56c7ccccc7N1[C@H]5[C@H]2[C@H]3C[C@H]46 [STRYCHNINE] | Not Active | Not Active
Nc1ccc(S(=O)(=O)NC(=O)c2ccccc2)cc1 [SULFABENZAMIDE] | Not Active | Not Active
CCCCCCCCNC(C)C(O)c1ccc(SC(C)C)cc1 (stereo unspecified) [SULOCTIDIL] | Not Active | Not Active
